Legend:
[1] = compound: CN(C)CC[C@H](CSc1ccccc1)Nc1ccc(S(=O)(=O)NC(=O)c2ccc(N3CCN(Cc4ccccc4-c4ccc(Cl)cc4)CC3)cc2)cc1[N+](=O)[O-] [ABT-737]
[2] = compound: CN1CCN(CCOc2cc(OC3CCOCC3)c3c(Nc4c(Cl)ccc5c4OCO5)ncnc3c2)CC1 [Saracatinib/AZD0530]
[3] = compound: CN1CC[C@H](c2c(O)cc(O)c3c(=O)cc(-c4ccccc4Cl)oc23)[C@H](O)C1 [Flavopiridol]
[4] = compound: CO[C@@H](C)Cn1c(=O)n(C)c2cnc3ccc(-c4cncc(C(C)(C)O)c4)cc3c21
[5] = compound: Cc1nc(-c2cn3c(n2)-c2ccc(-c4cnn(C(C)(C)C(N)=O)c4)cc2OCC3)n(C(C)C)n1 [Taselisib/GDC0032]
[6] = compound: C=CC(=O)Nc1ccc(C(=O)Nc2[nH]nc3c2CN(C(=O)N[C@H](CN(C)C)c2ccccc2)C3(C)C)cc1 [YKL-5-124]; assay: GR value, 72 h; higher = faster growth (1 = untreated, <0 = killing);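 further: breast cancer and non-malignant breast epithelial lines, nine half-log doses, viable cells counted by Hoechst and LIVE/DEAD dye imaging versus time-zero plates and DMSO controls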
[7] = compound: CC(=O)c1c(C)c2cnc(Nc3ccc(N4CCN(CCOCCOCCOCCNC(=O)COc5cccc6c5C(=O)N(C5CCC(=O)NC5=O)C6=O)CC4)cn3)nc2n(C2CCCC2)c1=O [BSJ-03-123]; assay: as above
[8] = compound: CC(=O)c1c(C)c2cnc(Nc3ccc(N4CCNCC4)cn3)nc2n(C2CCCC2)c1=O; assay: as above
[9] = compound: CCN1CCN(Cc2ccc(Nc3ncc(F)c(-c4cc(F)c5nc(C)n(C(C)C)c5c4)n3)nc2)CC1; assay: as above
[10] = compound: CCOc1cc2ncc(C#N)c(Nc3ccc(OCc4ccccn4)c(Cl)c3)c2cc1NC(=O)/C=C/CN(C)C [Neratinib/HKI272]; assay: as above
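Wherever GR50, 72 h is given: breast cancer and non-malignant breast epithelial cell lines, Deep Dye Drop or Dye Drop imaging, nine half-log doses, GR normalized to time-zero plates and DMSO-only controls.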

**Q.** What does the source list for T47D?
**A.** GR50, 72 h [1]: > 10 µM; GR50, 72 h [2]: 3.95 µM; GR50, 72 h [3]: 0.116 µM; GR50, 72 h [4]: < 0.001 µM; GR50, 72 h [5]: 0.00179 µM; GR value ([6]; 0.001 µM): 0.51 GR; GR value ([6]; 0.003162 µM): 0.332 GR; GR value ([6]; 0.01 µM): 0.172 GR; GR value ([6]; 0.03162 µM): 0.143 GR; GR value ([6]; 0.1 µM): 0.0629 GR; GR value ([6]; 0.3162 µM): 0.0978 GR; GR value ([6]; 1 µM): 0.082 GR; GR value ([6]; 3.162 µM): 0.0131 GR; GR value ([6]; 10 µM): -0.175 GR; GR value ([7]; 0.001 µM): 0.505 GR; GR value ([7]; 0.003162 µM): 0.473 GR; GR value ([7]; 0.01 µM): 0.28 GR; GR value ([7]; 0.03162 µM): 0.231 GR; GR value ([7]; 0.1 µM): 0.228 GR; GR value ([7]; 0.3162 µM): 0.203 GR; GR value ([7]; 1 µM): 0.115 GR; GR value ([7]; 3.162 µM): 0.165 GR; GR value ([7]; 10 µM): 0.118 GR; GR value ([8]; 0.0003162 µM): 1.07 GR; GR value ([8]; 0.001 µM): 1.08 GR; GR value ([8]; 0.003162 µM): 1.04 GR; GR value ([8]; 0.01 µM): 0.782 GR; GR value ([8]; 0.03162 µM): 0.478 GR; GR value ([8]; 0.1 µM): 0.203 GR; GR value ([8]; 0.3162 µM): 0.177 GR; GR value ([8]; 1 µM): 0.122 GR; GR value ([8]; 3.162 µM): 0.132 GR; GR value ([9]; 0.001 µM): 0.86 GR; GR value ([9]; 0.003162 µM): 0.604 GR; GR value ([9]; 0.01 µM): 0.244 GR; GR value ([9]; 0.03162 µM): 0.0789 GR; GR value ([9]; 0.1 µM): 0.166 GR; GR value ([9]; 0.3162 µM): 0.117 GR; GR value ([9]; 1 µM): 0.171 GR; GR value ([9]; 3.162 µM): 0.0597 GR; GR value ([9]; 10 µM): -0.03 GR; GR value ([10]; 0.0003162 µM): 1.02 GR; GR value ([10]; 0.001 µM): 1.01 GR; GR value ([10]; 0.003162 µM): 0.94 GR; GR value ([10]; 0.01 µM): 0.899 GR; GR value ([10]; 0.03162 µM): 0.749 GR; GR value ([10]; 0.1 µM): 0.65 GR

Source: the supplement of paper PMC9663587
